According to PMC9897788, “Design, synthesis and cytotoxic evaluation of novel bis-thiazole derivatives as preferential Pim1 kinase inhibitors with in vivo and in silico study” (Journal of Enzyme Inhibition and Medicinal Chemistry, 2023):

Experiments:
Pim2 = tested on: Pim2; design: method as in PMID 25575657; conditions: cited from earlier work
Pim1 = tested on: Pim1; design: method as in PMID 25575657; conditions: cited from earlier work
Ehrlich solid carcinoma = assay: In vivo cytotoxicity study, Ehrlich solid carcinoma model; design: species or system male Swiss albino mice; conditions: i.p. once weekly for 3 weeks, 8b 1 mg/kg, 3b 1.4 mg/kg, doxorubicin 2 mg/kg; for VEGF expression by immunohistochemistry / caspase-3 expression by immunohistochemistry: Ehrlich solid tumour tissue; for Histopathological examination of Ehrlich solid tumour (H&E): mice
Procedure: The National Cancer Institute (Cairo, Egypt) provided the 48 male Swiss albino mice utilised in this study, which ranged in weight from 25 to 30 g. Prior to the experiment, mice were given a week to settle into their new environment. A constant 23 °C temperature, 60% humidity, and a 12/12 light/dark cycle were maintained in stainless steel cages. Each cage housed five mice with a plenty of nourishing food and refreshing water were served. This in vivo study was approved from the ethical committee of the Azhar University, Faculty of Medicine, Egypt.
A female mouse with an 8-day-old ascetic tumour was obtained from the National Cancer Institute on the day of induction, and Ehrlich ascites carcinoma (EAC) cells were isolated from the ascetic fluid of the animal (day 0). Then, regular saline was used to dilute the ascetic fluid (1:10). Each mouse received a subcutaneous injection of 0.2 ml of ascetic fluid containing 2.5 × 10^6 EAC cells in the right thigh of the hind limb to induce Ehrlich solid-phase cancer.
On day 11 following ESC inoculation, tumour formation was observed as a solid mass expanding in the right thigh of each animal. The mice were then randomly divided into four groups (n = 6) • Group (1) acted as the […] control group and mice received an i.p. DMSO (2 mg/kg/once weekly) for 3 weeks. • Group (2) (Doxorubicin Group) mice received an i.p. dose of doxorubicin (2 mg/kg/once weekly) for 3 weeks. • Group (3) mice were given an i.p. dose of 8b compound (1 mg/kg/once weekly) for 3 weeks, • Group (4) mice were given an i.p. dose of 3b compound (1.4 mg/kg/once weekly) for 3 weeks.
Two days after the last dose of therapy, blood was drawn from the mice’s orbital canthus, and serum was separated and stored at −80 °C for upcoming biochemical investigations. Following the cervical dislocation method of euthanasia, tumour samples from each mouse were collected and preserved in neutral buffered formalin at a 10% concentration for immunohistochemistry and histopathology studies. Histological preparations were performed according to the reported method. Slices of Ehrlich tumour were cut to a thickness of 3–4 mm before being fixed in 10% neutral buffered formalin (10% NBF), dehydrated through a series of ethanol solutions, cleaned in xylene, and finally embedded in paraffin. To examine the overall tissue architecture, sections ([…]) thick were cut from paraffin blocks using a microtome and stained with haematoxylin and eosin. We used a Leica microscope (CH9435 Hee56rbrugg) to look at H&E-stained tissue sections (Leica Microsystems, Switzerland).
The avidin–biotin–peroxidase complex (ABC) method was used to do immunohistochemistry on paraffin sections that were put on positively charged slides. Rabbit Anti-VEGF Receptor 2 Polyclonal Antibody (Elabscience Cat# E-AB-63481, Dil.: 1:100) and Rabbit Monoclonal anti-caspase-3 antibody, active (cleaved) form (Sigma Aldrich Catalog # AB3623)[41], were utilised during this IHC assessment. Each group’s sections were treated with the previously specified antibodies, after which the ABC technique reagents (Vectastain ABC-HRP kit, Vector labs) were applied. To locate the antigen–antibody combination, marker expression was stained with diaminobenzidine (DAB, manufactured by Sigma) and labelled with peroxidase. In order to conduct negative controls, non-immune serum was substituted for the primary or secondary antibodies. IHC-stained sections were assessed using a Leica (CH9435 Hee56sbrugg) microscope (Leica Microsystems, Switzerland).
Using one-way analysis of variance (ANOVA) followed by Tukey’s post-hoc test, the difference between experimental groups was analysed. All data are presented as mean ± standard deviation (SD). All comparisons were judged statistically significant when the p values ≤ 0.05. ImageJ (NIH Image J system, Bethesda, MD) was used for the analysis of immunohistochemistry photos.

HepG2 = tested on: HepG2; design: method as in PMID 20036563, PMID 26890114; conditions: cell line not clearly printed, probably HepG2; read-out: antitumor activity IC50; cited from earlier work
Pim1 gene = tested on: Pim1 gene; design: method as in PMID 34458233; conditions: quantitative RT-PCR; cited from earlier work
rat glioma = tested on: rat glioma; design: method as in PMID 20036563, PMID 26890114; conditions: against rat glioma; read-out: antitumor activity IC50; cited from earlier work
leukaemia = tested on: leukaemia; design: method as in PMID 20036563, PMID 26890114; conditions: against leukaemia; read-out: antitumor activity IC50; cited from earlier work
Pim3 = tested on: Pim3; design: method as in PMID 25575657; conditions: cited from earlier work

**Q.** Which IC50 (Pim2) does the source give for O=C(Nc1cnccc1OC1CCCCC1)c1csc(-c2c(F)cccc2F)n1 [VIIIb] here?
**A.** 250 nM

**Q.** And the IC50 (Pim1)?
**A.** 1 nM

**Q.** For COc1cccc2c1C(=O)c1c(O)c3c(c(O)c1C2=O)C[C@@](O)(C(=O)CO)C[C@@H]3O[C@H]1C[C@H](N)[C@H](O)[C@H](C)O1 [Doxorubicin, doxorubicin, reference compound], which “VEGF expression by immunohistochemistry” value (Ehrlich solid carcinoma) is on record?
**A.** low expression of VEGF

**Q.** And the “caspase-3 expression by immunohistochemistry” value (Ehrlich solid carcinoma)?
**A.** moderate caspase-3 expression

**Q.** What about the “VEGF expression by immunohistochemistry” value (Ehrlich solid carcinoma; listed as DOX) of the same molecule?
**A.** moderate

**Q.** And the “caspase-3 expression by immunohistochemistry” value (Ehrlich solid carcinoma; listed as DOX)?
**A.** positive caspase3 immunoreactivity

**Q.** And the “Histopathological examination of Ehrlich solid tumour (H&E)” value (Ehrlich solid carcinoma)?
**A.** small clusters of cancerous cells

**Q.** And the “Histopathological examination of Ehrlich solid tumour (H&E)” value (Ehrlich solid carcinoma; listed as doxorubicin)?
**A.** large region of necrotic muscle tissue surrounded by small clusters of cancerous cells

**Q.** With CNc1nc(C)c(/C(C)=N\c2nc(C)c(/N=N/c3ccccc3)s2)s1 [IV] as the molecule, how does the IC50 (HepG2) read?
**A.** 13200 nM

**Q.** With Cc1[nH]/c(=N/N=C2CCC(=N/N=c3/[nH]c(C)c(/N=N/c4ccccc4)s3)CC2)sc1/N=N/c1ccccc1 [IXa] as the molecule, how does the “fold of change in Pim1 kinase activity (mRNA expression of Pim1 gene)” value (shortened to “fold of change in Pim1 kinase activity”) (Pim1 gene) read?
**A.** 0.4 fold

**Q.** With COc1cc(-c2ccc(Nc3nc(-c4ccc(Br)cc4)cs3)c(OC)c2)ccc1Nc1nc(-c2ccc(Br)cc2)cs1 [III] as the molecule, how does the IC50 (rat glioma) read?
**A.** 15700 nM

**Q.** With Cc1sc(=N)n(-c2cccc(-n3c(-c4ccc(Cl)cc4)c(C)sc3=N)c2)c1-c1ccc(Cl)cc1 [VI] as the molecule, how does the IC50 (leukaemia) read?
**A.** 1460 nM

**Q.** For O=C(Nc1cnccc1OC1CCNCC1)c1csc(-c2c(F)cccc2F)n1 [VIIIa], which IC50 (Pim3) is on record?
**A.** 1 nM

**Q.** And the IC50 (Pim2)?
**A.** 18 nM

**Q.** And the IC50 (Pim1)?
**A.** 1 nM

**Q.** With Cc1[nH]/c(=N/N=C2CCC(=N/N=c3/[nH]c(C)c(/N=N/c4ccccc4Cl)s3)CC2)sc1/N=N/c1ccccc1Cl [IXc] as the molecule, how does the “fold of change in Pim1 kinase activity” value (Pim1 gene) read?
**A.** 0.3 fold

**Q.** With Cc1ccc(/N=N/c2s/c(=N\N=C3CCC(=N/N=c4/[nH]c(C)c(/N=N/c5ccc(C)cc5)s4)CC3)[nH]c2C)cc1 [IXb] as the molecule, how does the “fold of change in Pim1 kinase activity” value (Pim1 gene) read?
**A.** 0.5 fold
